Data set [1] deals with E. coli K-12 wild-type and ΔtauD. The data set is classed as cell-based, Escherichia coli. The settings on record: for growth when plated with 2 mM: 2 mM on plates. As to the method: Uptake of exogenous CoM by E. coli. To determine whether E. coli could catabolize CoM, wild-type (NB506) and ΔtauD (NB510) E. coli K-12 strains were tested for the ability to use CoM, cysteine, and taurine as sole sulfur source on M9 minimal medium lacking sulfur (—S) agar plates after washing to reduce nutrient carryover. E. coli strains were streaked on LB agar (1.5%) plates and used to inoculate 3 mL defined medium (Table 7) then incubated at 35° C. (16 hours, 215 rpm). Cells from 100 μL of each culture was harvested by centrifugation at 5,000×g for 3 minutes. Cells were washed three times and resuspended in 1 mL phosphate buffered saline (137 mM NaCl, 2.7 mM KCl, 10 mM Na2HPO4, 1.8 mM KH2PO4). […] Washed cultures were streaked on each agar plate and incubated at 35° C. for 63 hours before photographing.
We assessed which catabolic pathways could be involved in a hypothetical digestion of CoM by E. coli. […] If this was the case, then the antioxidant effect of CoM may be stronger in the ΔtauD strain when compared to the wild-type strain.

Data set [2] deals with E. coli K-12 ΔtauD. The data set can be described thus: Oxidative stress assay after preincubation with CoM (cumene hydroperoxide).
The next data set relates to wild-type E. coli K12. Described as above. Type of data set: cell-based, Escherichia coli. From the text: After having established that E. coli can use CoM as a sulfur source when grown on sulfur-free media, we tested if exogenously supplied CoM could mitigate oxidative stress. […] Protection from oxidative stress remained consistent as the concentration of CuHO2 increased (FIG. 19b). Exponential and logarithmic regression analyses were applied to the lag times of −CoM and +CoM cultures under CuHO2 stress (FIG. 33). These regression curves and their associated equations calculate that the lag time for +CoM E. coli subjected to 65 μM CuHO2 is equivalent to the lag time of −CoM E. coli subjected to ˜50 μM CuHO2.

Data set [3] has as its system E. coli K-12 ΔtauD. Description: Chronic oxidative stress assay (cumene hydroperoxide, 96-well growth). The settings on record: taurine supplied. Type of data set: cell-based, Escherichia coli. On the procedure:
Chronic oxidative stress assay. Cultures were prepared according to the procedure outlined in the Acute Stress Assay method above. Cultures were normalized to 0.1 OD600 and 4.5 mL defined medium was inoculated (1:10) and gently mixed. Cultures (148 μL) were dispensed into each well of a sterile 96-well plate. 2 μL of either H2O or […] CuHO2 was added to designated wells.
Observed increases in the doubling times of com^syn expressing cells are expected as these cultures are being tasked with recombinantly producing enzymes which the vector-only control carrying cells are not (FIG. 8d).
As CoM is a thiol with proposed antioxidant qualities, we tested the ability of operon 3 to protect E. coli from oxidative stress. ΔtauD K-12 E. coli were made kanamycin sensitive through the use of the pCP20 plasmid and given a T7 Polymerase using a λDE3 Lysogenization Kit (Novagen). […] Expression of operon 3 was induced for 2 hours using 100 μM IPTG and cultures were incubated with 100 μM taurine for 70 minutes before being used as inoculum in a 96 well plate with cumene hydroperoxide. Optical density (OD) measurements at 600 nm were taken every 6 minutes for 17.5 hours using a Tecan Microplate Reader. A Kirby-Bauer assay was developed which examined the zone of clearing around sterile absorption disks dosed with 5 μL 2.45M hydrogen peroxide.

Data set [4] relates to E. coli K-12 ΔtauD. Description: Acute oxidative stress assay (H2O2 disks, zone of clearing). The data set is classed as cell-based, Escherichia coli. The settings on record: 0.1 mM taurine. On the procedure:
Acute oxidative stress assay. E. coli K-12 ΔtauD (NB510) was transformed using pET24a (vector-only control, VOC) or pCH003 (com^syn) to generate strains NB515 and NB525, respectively, and grown on LB agar (1.5%) plates containing 50 μg/mL kanamycin. Cultures were grown in defined medium with kanamycin at 37° C. (10 hours, 215 rpm) then 6 mL defined medium was inoculated (1:100). This culture was incubated until OD600=0.4-0.5 then induced using 0.1 mM IPTG. After another hour of incubation, the cultures were then split into two aliquots of 2.6 mL each, given either 0.1 mM taurine or H2O, and incubated another hour. LB plates containing 0.1 mM IPTG and 0.1 mM taurine were prepared and warmed for 15 minutes at 37° C. Cultures were normalized to 0.1 OD600 and 1 mL of culture was spread on each plate. […] Zones of clearing were measured using the ImageJ program.(38) […]
As CoM is a thiol with proposed antioxidant qualities, we tested the ability of operon 3 to protect E. coli from oxidative stress. ΔtauD K-12 E. coli were made kanamycin sensitive through the use of the pCP20 plasmid and given a T7 Polymerase using a λDE3 Lysogenization Kit (Novagen). […] Optical density (OD) measurements at 600 nm were taken every 6 minutes for 17.5 hours using a Tecan Microplate Reader. […]

Data set [5] concerns CoM synthesis from pyruvate and taurine. The data set can be described thus: CoM biosynthesis assay in E. coli lysate. Type of data set: biochemical, Escherichia coli. On the procedure: CoM biosynthesis assay. To improve expression of comF, pCH003 was transformed into BL21 E. coli along with pDB1282, graciously provided by Squire J. Booker (Penn State University).(36) This strain was grown in 25 mL defined medium overnight at 37° C. (250 rpm); this was used to inoculate 975 mL defined medium and continued growth at 37° C. (250 rpm). At OD600=0.3 of the culture was supplemented with 2% L-arabinose, 2 mL 1 M cysteine HCl (2 mM), […] iron (II) sulfate (1 mM), and […] ferric ammonium sulfate (1 mM) then returned to incubation. After 1 hour the culture was induced using 0.1 mM IPTG, incubated for 3 hours, pelleted at 8,000×g (10 minutes, 4° C.), and stored at −80° C. until analysis. A portion of the cell pellet was lysed as described above and the presence of ComF and Tpa was confirmed by immunoblotting using a 8-16% polyacrylamide gel with the initial electrophoresis changed to 50 V (25 minutes) followed by 100 V (105 minutes) and transferred using constant 0.11 A (50 minutes). […] Samples were aspirated into a luer slip tip syringe and filtered through a 0.2 μm, 13 mm diameter polyethersulfone (PES) membrane into fresh amber autosampler vials then stored at 4° C. in the dark until analyzed by high-performance liquid chromatography (HPLC) using an UltiMate 3000 (Thermo Scientific, Waltham, MA). […]

Values joined by “and” are separate entries in the source; they are usually repeats but may differ in a detail not shown here. Equal values may be shown once.

On to `N[C@@H](CS)C(=O)O` [Cys, cysteine], for which the “growth when plated with 2 mM” value in data set [1] is reported as “no growth defects”.
For `O=S(=O)(O)CCS` [CoM, 2-mercaptoethanesulfonate], the lag time in the data set on E. coli K-12 ΔtauD [2] (+CoM, 65 μM CuHO2) is on record as 4.7 h; with E. coli K-12 ΔtauD [2] (preincubated with CoM, 75 μM cumene) it was 3.5 h; in the data set with wild-type E. coli K12 (+CoM, 65 μM CuHO2) it was 6.0 h; with wild-type E. coli K12 (preincubated with 100 μM CoM (+CoM), 75 μM cumene negative control, time to OD600=0.1) it was 3.0 h. Further, the figures for the CuHO2 mitigated in the data set with E. coli K-12 ΔtauD [2] (comparison of lag times) and in the data set with wild-type E. coli K12 (from regression of lag times) were ~20 µM and ~15 µM, respectively. Also, the “growth when plated with 2 mM” value in data set [1] is “no growth defects”. The “CuHO2 concentration giving the same lag time in −CoM culture” value in the data set with wild-type E. coli K12 (+CoM at 65 μM CuHO2, regression) was ~50 µM and 49.73 µM. Also, the “lag time predicted by exponential regression” value in the data set on wild-type E. coli K12 (+CoM, 65 μM CuHO2) is reported as 6.313 h.
On to `NCCS(=O)(=O)O` [taurine], for which, in data set [1], the “growth when plated with 2 mM” value is “Inhibitory growth”. Moreover, the “growth with the substance as sulfur source” value in data set [1] (M9 (—S) agar plates, 100 μM) was “grew poorly”. Besides, the “lag time of vector-only control cells” value in the data set on E. coli K-12 ΔtauD [3] is reported as “lag time increased”; in the data set with E. coli K-12 ΔtauD [3] (listed as SC), “increases”. Further, the “zone of clearing of Empty Vector strain” value with E. coli K-12 ΔtauD [4] is “increase in the average zone of clearing size”.

B1: Q9APM5: taurine-pyruvate aminotransferase from Bilophila wadsworthia, SEQ ID NO: 3 (protein, listed as Bilophila wadsworthia)
chain: MTYDKAELVALDKKYVWHHLTQHKNFEPAIYVKGEGMRITDIDGKTYLDAVSGGVWTVNVGYGRKEIVDAVAKQMMEMCYFANGIGNVPTIKFSEKLISKMPGMSRVYLSNSGSEANEKAFKIVRQIGQLKHGGKKTGILYRARDYHGTTIGTLSACGQFERKVQYGPFAPGFYEFPDCDVYRSKFGDCADLGVKMAKQLEEVILTVGPDELGAVIVEPMTAGGGILVPPAGYYETIREICDKYELLLIIDEVVCGLGRTGKWFGYQHFNVQPDIVTMAKGVASGYAPISCTVTTEKVFQDFVNDPADTDAYFRDISTFGGCTSGPAAALANIEIIERENLLENCTKMGDRLLEGLKGLMAKHPIIGDVRGKGLFAGIEIVKDRATKEPIAEAVANAMVGAAKQAGVLIGKTSRSFREFNNTLTLCPALIATEADIDEIVAGIDKAFTTVEQKFGL
Regarding B1, the catalysis result in data set [5] (enzyme alone) is on record as “Catalysis was not observed”.

B2: MA3299: coenzyme M synthase (ComF) of Methanosarcina acetivorans, SEQ ID NO: 1 (protein)
chain: MNGALDNTEKPRTIQEIQVKIDAGEAVVLTAEEIGAKVRAGGEIRLEDIDVVTTATRGIMSGTYAVFSFKVSEPDSFVKASKVLLNGVPAIVGPCPNERLGVLDLIVLGTAHSETDSRYGGGHLFRDMVEGKSITVDVTTSVGDFFSVETRLSEMPFARLYATRHAFKNYRAFVNPGKESIKTIFHALPFEGEFRELTFCGCGELNPIQNDPKLETIGIGTRVLINGAEGFVTGQGTRSAPDNPNLTGFADLHDMTPEYMGGFVTSAGPEIVNTWAVPIPVLSREMLENILQLDSQIPLKLVDLAGRLPLCEITYGDVWDNTDLSVKYEPEKCIDCKICCVAEACPMGAVSKGENGAVHNPELCFNCGLCISRCKGEAFSAKLGTVSCAVGGCFRDIKVTLRQSDRARAVKAAEELKAQVLSGKFRLKEPVEKISWRE
modifications: Methanosarcina acetivorans
Turning to B2, in data set [5] (lysate removed from the anaerobic chamber for centrifugation), the “reduction of enzymatic activity” value is on record as ~60%.

The values above are taken from patent US20250382589A1, “SYNTHETIC OPERONS FOR THE PRODUCTION OF 2-MERCAPTOETHANE SULFONATE (COENZYME M) AND METHODS OF USING THE SAME” (priority 2024, published 2025).
